Measured values as given in patent EP2161278B1, “Single-chain coiled coil scaffold” (Complix N.V., priority 2008, dated 2010).
Peptide text beside a SMILES is read from it.

experiment: Thermal denaturation of trimeric coiled coil peptides by CD thermal scan (signal at 222 nm versus temperature, curve fitting); format: physicochemical; settings: core mutants at positions 3a and 3d of the reference peptide with glutamine at 2a; Figure 9
Method: The said synthesized peptide was dissolved at a concentration of 292 microM in 20 mM phosphate buffer (PBS), 150 mM NaCl, pH 7.2. The CD spectra were measured between […], at 5 and 90 degrees Celsius (Figure 3). The spectrum at 5 degrees Celsius was indicative of a high alpha-helical secondary structure content, in agreement with the expectation that all heptad regions, but not all of the flanking residues, would assemble as alpha-helical coiled coils.
To analyse whether the temperature-induced transition between helical and nonhelical states was reversible, a forward (up) and backward (down) thermal scan was performed on the same sample, by recording the CD signal at […] as a function of temperature at a scanning rate of about 1 degree Celsius per minute (Figure 4). It was observed that the up and down scans almost perfectly coincided, thereby confirming the quantitative unfolding and refolding of the peptides in the sample.
It was further analyzed whether the thermal unfolding curve of Figure 4 conformed to the thermodynamic equations describing the equilibrium folding/unfolding reaction between three molecules free (monomeric) peptide and one entity of folded (trimeric) complex. This reaction is generally written as 3 peptide <=> peptide3 wherein "<=>" refers to a chemical equilibrium, "peptide" to a monomeric peptide in solution and "peptide3" to a trimeric entity in the folded (assembled, associated) state. This thermal unfolding curve was fitted to the theoretic equations: θ(T) = θM (T) + (θT(T)-θM(T))(1+root(F(-(1)/(2)+sqrt((1)/(4) + (F)/(27))), 3)+root(F(-(1)/(2)-sqrt((1)/(4) + (F)/(27))), 3)) [formula] wherein F = (exp(-(ΔHt)/(RT)(1-T/T1)-(ΔCp)/(RT)(T-Tt-Tln(T/Tt))))/(4) [formula] and T≡ the temperature, in degrees Kelvin, of the sample θ(T)≡ the CD-signal [theta]222 nm, in deg cm^2 dmol^-1, as a function of T θM(T)≡ the CD-signal for 100% free (monomeric) peptide as a function of T θT(T) ≡ the CD-signal for 100% associated (trimeric) peptide as a function of T Tt ≡ the transition temperature, where 50% of the total peptide concentration is associated ΔHt ≡ the enthalpy difference, in kJ per mole peptide, between mono- and trimeric states ΔCp ≡ the heat capacity difference, in J mol^-1 K^-1, between mono- and trimeric states R ≡ the ideal (universal) gas constant ≡ 8.31 J mol^-1 K^-1
The global CD signal was somewhat lower than expected, which could be due to an instrumental deviation, an error in the concentration determination, a lower purity, or a lower than expected alpha-helical content. Nevertheless, the main goal of this experiment was to examine the effect of the glutamine-to-isoleucine mutant on the stability of the complex. […] The estimated transition temperature was around 97 degrees Celsius, although the latter was difficult to determine because of incompleteness of the transition.
All ten peptides were analyzed by thermal CD scanning as in Examples 3 and 4. Fitting of the thermal denaturation curves, as described in Example 3, gave the corresponding transition temperatures shown in Figure 9. […]

Q: Which “effect of core substitution on stability (transition temperature) compared to the reference peptide comprising isoleucine at positions 3a and 3d” value does the source give for `CC[C@H](C)[C@H](NC(=O)[C@H](C)NC(=O)[C@H](C)NC(=O)[C@H](CCC(N)=O)NC(=O)[C@H](CCC(N)=O)NC(=O)[C@H](CCCCN)NC(=O)[C@H](CCC(N)=O)NC(=O)[C@@H](NC(=O)[C@H](CCC(=O)O)NC(=O)[C@H](CCC(=O)O)NC(=O)[C@@H](NC(=O)[C@H](CO)NC(=O)[C@H](CCSC)NC(C)=O)[C@@H](C)CC)[C@@H](C)CC)C(=O)N[C@@H](CCC(N)=O)C(=O)N[C@@H](CCCCN)C(=O)N[C@@H](CCC(N)=O)C(=O)N[C@H](C(=O)N[C@@H](C)C(=O)N[C@@H](C)C(=O)N[C@@H](CCC(N)=O)C(=O)N[C@@H](CCC(N)=O)C(=O)N[C@@H](CCCCN)C(=O)N[C@@H](CCC(N)=O)C(=O)N[C@H](C(=O)N[C@@H](Cc1ccc(O)cc1)C(=O)N[C@@H](CCCNC(=N)N)C(=O)N[C@@H](CCSC)C(=O)N[C@H](C(=O)N1CCC[C@H]1C(N)=O)[C@@H](C)O)[C@@H](C)CC)[C@@H](C)CC` [3dQ] (Ac-MSIEEIQKQQAAIQKQIAAQQKQIYRMTP-NH2) here?
A: The value was “disruptive”.

Q: With `CC[C@H](C)[C@H](NC(=O)[C@H](C)NC(=O)[C@H](C)NC(=O)[C@H](CCC(N)=O)NC(=O)[C@H](CCC(N)=O)NC(=O)[C@H](CCCCN)NC(=O)[C@H](CCC(N)=O)NC(=O)[C@@H](NC(=O)[C@H](CCC(=O)O)NC(=O)[C@H](CCC(=O)O)NC(=O)[C@@H](NC(=O)[C@H](CO)NC(=O)[C@H](CCSC)NC(C)=O)[C@@H](C)CC)[C@@H](C)CC)C(=O)N[C@@H](CCC(N)=O)C(=O)N[C@@H](CCCCN)C(=O)N[C@@H](CCC(N)=O)C(=O)N[C@H](C(=O)N[C@@H](C)C(=O)N[C@@H](C)C(=O)N[C@@H](CO)C(=O)N[C@@H](CCC(N)=O)C(=O)N[C@@H](CCCCN)C(=O)N[C@@H](CCC(N)=O)C(=O)N[C@H](C(=O)N[C@@H](Cc1ccc(O)cc1)C(=O)N[C@@H](CCCNC(=N)N)C(=O)N[C@@H](CCSC)C(=O)N[C@H](C(=O)N1CCC[C@H]1C(N)=O)[C@@H](C)O)[C@@H](C)CC)[C@@H](C)CC` [3dS] (Ac-MSIEEIQKQQAAIQKQIAASQKQIYRMTP-NH2) as the molecule, how does the “effect of core substitution on stability (transition temperature) compared to the reference peptide comprising isoleucine at positions 3a and 3d” value read?
A: Its value is “disruptive”.

Q: With `CC[C@H](C)[C@H](NC(=O)[C@H](C)NC(=O)[C@H](C)NC(=O)[C@H](CCC(N)=O)NC(=O)[C@H](CCC(N)=O)NC(=O)[C@H](CCCCN)NC(=O)[C@H](CCC(N)=O)NC(=O)[C@@H](NC(=O)[C@H](CCC(=O)O)NC(=O)[C@H](CCC(=O)O)NC(=O)[C@@H](NC(=O)[C@H](CO)NC(=O)[C@H](CCSC)NC(C)=O)[C@@H](C)CC)[C@@H](C)CC)C(=O)N[C@@H](CCC(N)=O)C(=O)N[C@@H](CCCCN)C(=O)N[C@@H](CCC(N)=O)C(=O)N[C@H](C(=O)N[C@@H](C)C(=O)N[C@@H](C)C(=O)N[C@H](C(=O)N[C@@H](CCC(N)=O)C(=O)N[C@@H](CCCCN)C(=O)N[C@@H](CCC(N)=O)C(=O)N[C@H](C(=O)N[C@@H](Cc1ccc(O)cc1)C(=O)N[C@@H](CCCNC(=N)N)C(=O)N[C@@H](CCSC)C(=O)N[C@H](C(=O)N1CCC[C@H]1C(N)=O)[C@@H](C)O)[C@@H](C)CC)C(C)C)[C@@H](C)CC` [3dV] (Ac-MSIEEIQKQQAAIQKQIAAVQKQIYRMTP-NH2) as the molecule, how does the “effect of core substitution on stability (transition temperature) compared to the reference peptide comprising isoleucine at positions 3a and 3d” value read?
A: Its value is “relatively strong”.
